In US10988459B2 (priority 2015, dated 2021):
pKi: −log10 of the molar value.

The compounds below were run against human RIP1 kinase domain (2-375) (Homo sapiens (Human), UniProt Q13546) (assay: biochemical). Conditions: Table 1; apparent Ki (Morrison tight-binding fit); 50 nM RIP1 kinase domain, 50 uM ATP, 2 hours incubation; read-out: RIP1 Ki.
Type: biochemical
How it was run: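 50 nM purified kinase domain from baculovirus-infected insect cells, incubated 2 h with compound in 50 mM Hepes pH 7.5, 30 mM MgCl2, 1 mM DTT, 50 uM ATP, 0.002% Brij-35, 0.5% DMSO. ADP formation read by Transcreener FP at 633 nm excitation. Ki^app fitted with the Morrison tight-binding equation.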

Chain of human RIP1 kinase domain (2-375) (Q13546 2-375): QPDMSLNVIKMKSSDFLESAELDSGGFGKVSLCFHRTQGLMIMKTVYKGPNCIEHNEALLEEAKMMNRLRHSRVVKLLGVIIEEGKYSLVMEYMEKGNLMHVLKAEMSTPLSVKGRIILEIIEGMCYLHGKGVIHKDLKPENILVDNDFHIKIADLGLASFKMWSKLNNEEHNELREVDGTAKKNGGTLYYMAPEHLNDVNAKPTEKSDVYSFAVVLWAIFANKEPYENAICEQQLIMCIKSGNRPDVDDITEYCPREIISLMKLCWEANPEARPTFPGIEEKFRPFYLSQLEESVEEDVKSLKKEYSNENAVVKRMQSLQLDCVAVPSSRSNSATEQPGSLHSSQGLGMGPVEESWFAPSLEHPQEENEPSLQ

Structure (SMILES)	pKi
CC1CCc2onc(C(=O)N[C@H]3COc4ccccc4NC3=O)c2C1 (stereo partly drawn) [Example 63, 5-methyl-N-((S)-4-oxo-2,3,4,5-tetrahydrobenzo[b][1,4]oxazepin-3-yl)-4,5,6,7-tetrahydrobenzo[d]isoxazole-3-carboxamide]	6.13
CN1C(=O)[C@@H](NC(=O)c2n[nH]c3c2CC(c2ccccc2)CC3)COc2ccccc21 (stereo partly drawn) [Example 24, N—((S)-5-methyl-4-oxo-2,3,4,5-tetrahydrobenzo[b][1,4]oxazepin-3-yl)-5-phenyl-4,5,6,7-tetrahydro-1H-indazole-3-carboxamide]	7.55

Same assay, conditions: Table 5; apparent Ki (Morrison tight-binding fit); 50 nM RIP1 kinase domain, 50 uM ATP, 2 hours incubation; read-out: Ki

pKi	Structure (SMILES)
6.72	CN1C(=O)[C@@H](NC(=O)c2ncn(Cc3ccccc3F)n2)CCn2nc(CCN3CC(F)(F)C3)cc21 [Example 773, 1-[(2-fluorophenyl)methyl]-N-[(6S)-2-[2-(3,3-difluoroazetidin-1-yl)ethyl]-4-methyl-5-oxo-7,8-dihydro-6H-pyrazolo[1,5-a][1,3]diazepin-6-yl]-1,2,4-triazole-3-carboxamide]
6.85	Cc1cc2n(n1)CC[C@H](NC(=O)c1ccn(Cc3ccccc3)n1)C(=O)N2C [Example 741, 1-benzyl-N-[(6S)-2,4-dimethyl-5-oxo-7,8-dihydro-6H-pyrazolo[1,5-a][1,3]diazepin-6-yl]pyrazole-3-carboxamide]
5.40	CN1C(=O)[C@H](NC(=O)c2ncn(Cc3ccccc3)n2)CCn2nc(CCCN3CCOCC3)cc21 (single isomer, unassigned) [Example 738]
7.64	C[C@]1(C(F)(F)F)OCc2cnc(C(=O)N[C@H]3CCc4cc(F)cc(F)c4NC3=O)cc21 [Example 746, (1S)-1-methyl-N-[(3S)-7,9-difluoro-2-oxo-1,3,4,5-tetrahydro-1-benzazepin-3-yl]-1-(trifluoromethyl)-3H-furo[3,4-c]pyridine-6-carboxamide]

Same assay, conditions: human RIP1 kinase domain (2-375), 50 uM ATP, 2 hours incubation, Transcreener ADP assay; read-out: RIP1 Ki

pKi	Structure (SMILES)
6.63	CN1C(=O)[C@@H](NC(=O)c2cc3c(cn2)cnn3CC(F)(F)F)COc2ccccc21 [Example 127, N-[(3S)-5-methyl-4-oxo-2,3-dihydro-1,5-benzoxazepin-3-yl]-1-(2,2,2 trifluoroethyl)pyrazolo[4,3-c]pyridine-6-carboxamide]
7.33	Cc1cc2n(n1)CC[C@H](NC(=O)c1ncn(Cc3ccc(F)c(F)c3)n1)C(=O)N2C [Example 220, (S)-1-(3,4-difluorobenzyl)-N-(2,4-dimethyl-5-oxo-5,6,7,8-tetrahydro-4H-pyrazolo[1,5-a][1,3]diazepin-6-yl)-1H-1,2,4-triazole-3-carboxamide]
6.04	CC(C)n1ncc2c1OC[C@H](NC(=O)c1ncn(Cc3ccccc3)n1)C(=O)N2 [Example 203, (S)-1-benzyl-N-(1-isopropyl-5-oxo-4,5,6,7-tetrahydro-1H-pyrazolo[3,4-b][1,4]oxazepin-6-yl)-1H-1,2,4-triazole-3-carboxamide]
5.77	CN1C(=O)[C@@H](NC(=O)c2nnc3cnc(C(F)(F)F)cn23)COc2ccccc21 [Example 200, (S)—N-(5-methyl-4-oxo-2,3,4,5-tetrahydrobenzo[b][1,4]oxazepin-3-yl)-6-(trifluoromethyl)-[1,2,4]triazolo[4,3-a]pyrazine-3-carboxamide]
6.81	CN1C(=O)[C@@H](NC(=O)c2n[nH]c3c2CC2(CCC2)OC3)COc2ccccc21 [Example 211, (S)—N-(5-methyl-4-oxo-2,3,4,5-tetrahydrobenzo[b][1,4]oxazepin-3-yl)-4′,7′-dihydro-1′H-spiro[cyclobutane-1,5′-pyrano[3,4-c]pyrazole]-3′-carboxamide]

Same assay, conditions: human RIP1 kinase domain (2-375), Transcreener ADP assay, 50 uM ATP, 2 hours incubation; read-out: RIP1 Ki

pKi	Structure (SMILES)
6.98	CN1C(=O)C(NC(=O)c2ncn(CC3CCCC3)n2)CCn2nc(C3CC3)cc21 (stereo not drawn) [Example 261, 1-(cyclopentylmethyl)-N-(2-cyclopropyl-4-methyl-5-oxo-5,6,7,8-tetrahydro-4H-pyrazolo[1,5-a][1,3]diazepin-6-yl)-1H-1,2,4-triazole-3-carboxamide]

Same assay, conditions: scale-up batches (Examples A-C); apparent Ki (Morrison tight-binding fit); 50 nM RIP1 kinase domain, 50 uM ATP; read-out: Ki

pKi	Structure (SMILES)
7.80	CN1C(=O)[C@@H](NC(=O)c2ncn(Cc3ccccc3)n2)CCn2nc(C3CC3)cc21 [Example A, (S)-1-benzyl-N-(2-cyclopropyl-4-methyl-5-oxo-5,6,7,8-tetrahydro-4H-pyrazolo[1,5-a][1,3]diazepin-6-yl)-1H-1,2,4-triazole-3-carboxamide]

Same assay, conditions: tight-binding apparent inhibition constant; human RIP1 kinase domain (2-375) 50 nM, 50 uM ATP, 2 hours; read-out: Ki

pKi	Structure (SMILES)
6.72	CN1C(=O)[C@@H](NC(=O)c2ncn(Cc3ccccn3)n2)CCn2nccc21 [Example 650, 1-(2-pyridylmethyl)-N-(6S)-4-methyl-5-oxo-7,8-dihydro-6H-pyrazolo[1,5-a][1,3]diazepin-6-yl-1,2,4-triazole-3-carboxamide]
7.30	CN1C(=O)[C@H](NC(=O)c2ncn(Cc3c(F)cccc3F)n2)CCn2cncc21 [Example 600, 1-[(2,6-difluorophenyl)methyl]-N-[(3R)-1-methyl-2-oxo-4,5-dihydro-3H-imidazo[1,5-a][1,3]diazepin-3-yl]-1,2,4-triazole-3-carboxamide]
6.08	Cc1cc2n(n1)CC[C@H](NC(=O)c1ncc3c(n1)C1(CCOCC1)OC3)C(=O)N2C [Example 512, N-[(6S)-2,4-dimethyl-5-oxo-7,8-dihydro-6H-pyrazolo[1,5-a][1,3]diazepin-6-yl]spiro[5H-furo[3,4-d]pyrimidine-7,4′-tetrahydropyran]-2-carboxamide]
7.47	CCC1CCc2nc(C(=O)N[C@H]3COc4cc(C)cc(F)c4NC3=O)nn21 (stereo partly drawn) [Example 349, 5-ethyl-N-[(3S)-6-fluoro-8-methyl-4-oxo-3,5-dihydro-2H-1,5-benzoxazepin-3-yl]-6,7-dihydro-5H-pyrrolo[1,2-b][1,2,4]triazole-2-carboxamide]
7.52	O=C(N[C@H]1CCc2cc(F)cc(F)c2NC1=O)c1nc2n(n1)CCO[C@H]2c1ccccc1F [Example 630, (8S)-8-(2-fluorophenyl)-N-[(3S)-7,9-difluoro-2-oxo-1,3,4,5-tetrahydro-1-benzazepin-3-yl]-6,8-dihydro-5H-[1,2,4]triazolo[5,1-c][1,4]oxazine-2-carboxamide]
6.92	CN1C(=O)[C@@H](NC(=O)c2nc3n(n2)[C@H](C2CCOCC2)CCC3)COc2ccccc21 (racemic) [Example 410, (S)—N—((S)-5-methyl-4-oxo-2,3,4,5-tetrahydrobenzo[b][1,4]oxazepin-3-yl)-5-(tetrahydro-2H-pyran-4-yl)-5,6,7,8-tetrahydro-[1,2,4]triazolo[1,5-a]pyridine-2-carboxamide]
8.24	CN1C(=O)[C@@H](NC(=O)c2ncc3c(n2)C2(CCC2)OC3)COc2ccccc21 [Example 616, N-[(3S)-5-methyl-4-oxo-2,3-dihydro-1,5-benzoxazepin-3-yl]spiro[5H-furo[3,4-d]pyrimidine-7,1′-cyclobutan]-2-carboxamide]
7.13	Cc1cc2n(n1)CC[C@H](NC(=O)c1ncn(Cc3ncccc3Cl)n1)C(=O)N2C [Example 657, 1-[(3-chloro-2-pyridyl)methyl]-N-(6S)-2,4-dimethyl-5-oxo-7,8-dihydro-6H-pyrazolo[1,5-a][1,3]diazepin-6-yl-1,2,4-triazole-3-carboxamide]
5.09	CN1C(=O)[C@H](NC(=O)c2ncn(Cc3ccc(Cl)cc3)n2)CCn2nc(C3CC3)cc21 (single isomer, unassigned) [Example 671]
8.15	CN1C(=O)[C@@H](NC(=O)c2cc3c(cn2)cnn3C(F)(F)F)COc2ccccc21 [Example 356, (S)—N-(5-methyl-4-oxo-2,3,4,5-tetrahydrobenzo[b][1,4]oxazepin-3-yl)-1-(trifluoromethyl)-1H-pyrazolo[4,3-c]pyridine-6-carboxamide]
7.55	CN1C(=O)[C@@H](NC(=O)c2ncn(Cc3ccc(F)cc3F)n2)CCn2nc(C(F)(F)F)cc21 [Example 529]
6.33	O=C(N[C@H]1COc2cc(F)cc(F)c2NC1=O)c1nc2n(n1)CCO[C@@H]2c1ccccc1 [Example 641, (8R)-8-phenyl-N-[(3S)-6,8-difluoro-4-oxo-3,5-dihydro-2H-1,5-benzoxazepin-3-yl]-6,8-dihydro-5H-[1,2,4]triazolo[5,1-c][1,4]oxazine-2-carboxamide]
7.85	CN1C(=O)[C@@H](NC(=O)c2nc3n(n2)CCO[C@@H]3c2ccccc2F)COc2ccccc21 [Example 629, (8R)-8-(2-fluorophenyl)-N-[(3S)-5-methyl-4-oxo-2,3-dihydro-1,5-benzoxazepin-3-yl]-6,8-dihydro-5H-[1,2,4]triazolo[5,1-c][1,4]oxazine-2-carboxamide]
7.30	Cc1ncn2c1N(C)C(=O)[C@H](NC(=O)c1ncn(Cc3cc(F)ccc3F)n1)CC2 [Example 504, 1-[(2,5-difluorophenyl)methyl]-N-(3R)-1,9-dimethyl-2-oxo-4,5-dihydro-3H-imidazo[1,5-a][1,3]diazepin-3-yl-1,2,4-triazole-3-carboxamide]
7.74	CN1C(=O)[C@@H](NC(=O)c2nc3n(n2)CCO[C@H]3c2ccccc2)COc2ccccc21 [Example 516, (8S)-8-phenyl-N-[(3S)-5-methyl-4-oxo-2,3-dihydro-1,5-benzoxazepin-3-yl]-6,8-dihydro-5H-[1,2,4]triazolo[5,1-c][1,4]oxazine-2-carboxamide]
8.33	CN1C(=O)[C@@H](NC(=O)c2ncc3cnn(-c4c(F)cccc4F)c3n2)COc2ccccc21 [Example 595]
6.04	Cc1cc2n(n1)CC[C@H](NC(=O)c1nc3n(n1)[C@H](c1ccccc1)CC3)C(=O)N2C (single isomer, unassigned) [Example 610]
